# Results taken from publication PMC9745799, “Polymyxin Stereochemistry and Its Role in Antibacterial Activity and Outer Membrane Disruption” (ACS Infectious Diseases, 2022).
# Values joined by “and” are separate entries in the source; they are usually repeats but may differ in a detail not shown here. Equal entries are not always repeated. Positions of bridges follow the written chain, without caps; N, C: chain ends. Non-standard residues stand in square brackets, D forms with d. Residues, ends and D or L forms follow the SMILES beside them. *: point of attachment. Heptanoyl = CCCCCCC(=O)*; Dab = NCC[C@H](N)C(=O)O
# Tests used:
# [1] = test system: polymyxin-resistant (mcr-1 positive) E. coli; assay: microbe, parasite or virus in culture; format: cell-based; details: E. coli mcr-1, checkerboard; for FICI: combination with rifampicin, CAMHB, 18 h, 37 °C, OD600, FICI ≤ 0.5 indicates synergy
# Protocol: (§1) Selected Gram-negative bacterial strains were taken from glycerol stocks and grown overnight on blood agar. A single colony was inoculated in TSB broth at 37 °C until an optical density of 0.5 at 600 nm (OD600) was reached. The bacterial suspension was diluted in freshly prepared CAMHB to 10^6 CFU/mL. Compounds were diluted along the plate, using 25 μL of CAMHB for each dilution. Antibiotic concentrations were prepared separately in a multiwell reservoir, including a control without antibiotic. Of each antibiotic stock, 25 μL was added to three columns to obtain triplicates for every condition. To each 50 μL containing well was then added 50 μL of the 10^6 CFU/mL bacterial suspension, and the plates were sealed with breathable seals. After incubation for 18 h at 37 °C while shaking, the seals were removed and the density of the bacterial suspensions was measured at 600 nm (OD600) using a Tecan Spark plate reader. The OD600 values were transformed to a 2D gradient with the negative control as the minimum and the positive control as the maximum. The FICI was calculated using the following equation: [drawing 1] with MSCant and MSCcomp indicating the optimal synergistic concentration of antibiotic and compound and MICant and MICcomp, the corresponding MICs of the individual compounds. An FICI ≤ 0.5 indicates synergy.[48]
# [2] = test system: polymyxin-sensitive E. coli ATCC 25922; assay: microbe, parasite or virus in culture; format: cell-based
# Protocol: as §1
# [3] = test system: E. coli ATCC 25922 (smooth LPS); assay: NPN uptake assay (outer membrane disruption); format: cell-based; details: NPN fluorescence after 1 h at RT, 5 mM HEPES pH 7.2 + 20 mM glucose, triplicates, result in words
# Protocol: (§2) Bacteria were taken from glycerol stocks and grown in TSB overnight. Cultures were diluted either 50 or 100 times in Lysogeny Broth (LB) and grown at 37 °C to an OD600 of 0.5. Test compounds were prepared in HEPES buffer (5 mM, pH 7.2 + 20 mM glucose) and serially diluted (25 μL per well) on 1/2 the area of black 96-well plates with a transparent bottom. N-Phenyl-1-naphthylamine (NPN) was dissolved in acetone (0.5 mM) and diluted to 40 μM in HEPES buffer (5 mM, pH 7.2 + 20 mM glucose). 25 μL of the NPN solution was added to each well. The bacterial suspension was spin down (1000g, 10 min), and the remaining cell pellet was resuspended in half the original volume of HEPES buffer (5 mM, pH 7.2 + 20 mM glucose). 50 μL of bacterial suspension was added to each well. NPN fluorescence was measured after 1 h of incubation at RT with λex 355 ± 20 nm and λem 420 ± 20 nm. The measured fluorescence signal was corrected for NPN fluorescence in the absence of compounds (bacteria in buffer + NPN) and presented as relative fluorescence units (RFUs).
# [4] = test system: E. coli BW25113 (rough LPS); assay: NPN uptake assay (outer membrane disruption); format: cell-based; details: NPN fluorescence after 1 h at RT, 5 mM HEPES pH 7.2 + 20 mM glucose, triplicates, result in words
# Protocol: as §2
# [5] = test system: LPS from E. coli (O55:B5); assay: Isothermal titration calorimetry (ITC), LPS binding; details: compound (1 mM) into LPS (20 µM), 20 mM HEPES pH 7, 37 °C, mean and SD of three experiments
# Protocol: Stock solutions of LPS (10 mg/mL, 0.5 mM) were prepared in 20 mM HEPES at pH 7 by suspension, sonication, and temperature cycling between 4 and 60 °C and stored overnight prior to use. LPS from E. coli (O55:B5) was used. Lipopeptide solutions (1 mM in 20 mM HEPES, pH 7) were titrated into a suspension of LPS (0.020 mM) in the same buffer. Control titrations included the titration of peptide into buffer and buffer into the LPS suspension to determine the corresponding heat of dilution. All binding experiments were performed using a MicroCal PEAQ-ITC Automated microcalorimeter (Malvern Panalytical Ltd., Malvern, UK). The samples were equilibrated to 37 °C prior to measurement. The titrations were conducted at 37 °C under constant stirring at 750 rpm. Each experiment consisted of an initial injection of 0.3 μL followed by 25 separate injections of 1.5 μL into the sample cell of 200 μL. The time between each injection was 180 s, and the measurements were performed with the reference power set at 5 μcal s^–1 and the feedback mode set at “low”. For all calculations performed, an estimated molecular weight of 20 kDa for LPS was applied. The calorimetric data thus obtained were analyzed using MicroCal PEAQ-ITC Analysis Software Version 1.20 (Malvern Panalytical Ltd., Malvern, UK), where the integrated heat signal is corrected for the heat of dilution of the titrant.
# [6] = test system: polymyxin-resistant, mcr-1 positive E. coli; assay: NPN uptake assay (outer membrane disruption); format: cell-based; details: E. coli mcr-1 positive; NPN fluorescence after 1 h at RT, highest concentration tested 32 μg/mL, triplicates; result in words
# Protocol: as §2
# [7] = test system: E. coli JW3596 (ΔwaaC); format: cell-based; details: truncated LPS, CLSI microbroth dilution, CAMHB, 18 h, 37 °C, triplicate
# Protocol: (§3) MICs of compounds were determined following CLSI guidelines using the microbroth dilution method in polypropylene plates. Selected Gram-negative bacterial strains (see Table S2 for strain sources) were taken from glycerol stocks and grown overnight on blood agar. Individual colonies were selected and grown in Tryptic Soy Broth (TSB) to an OD600 of 0.5. Compounds were diluted in Mueller Hinton Broth (MHB) supplemented with Mg^2+ and Ca^2+ at final concentrations of 12 and 20 mg/L, respectively (CAMHB). 50 μL was used for each well, and compounds were assessed in triplicates. Bacterial culture was diluted in CAMHB to 10^6 CFU/mL, yielding 5 × 10^5 CFU/mL upon addition of 50 μL of culture to 50 μL of compound solution. Positive and negative (sterility) controls were present on each plate. Plates were sealed with a semipermeable membrane and incubated for 22 h (A. baumannii) or 18 h (other strains) under shaking at 37 °C.
# [8] = test system: E. coli JW3594 (ΔwaaD); format: cell-based; details: truncated LPS, CLSI microbroth dilution, CAMHB, 18 h, 37 °C, triplicate
# Protocol: as §3
# [9] = test system: P. aeruginosa ATCC 10145; format: cell-based; details: ATCC 10145, 18 h
# Protocol: as §3
# [10] = test system: K. pneumoniae ATCC 13883; format: cell-based; details: ATCC 13883, 18 h
# Protocol: as §3
# [11] = test system: P. aeruginosa 2018-007; format: cell-based; details: 2018-007, 18 h
# Protocol: as §3
# [12] = test system: E. coli mcr-1; format: cell-based; details: CLSI microbroth dilution, CAMHB, 18 h, 37 °C, triplicate
# Protocol: as §3
# [13] = test system: P. aeruginosa NRZ03961; format: cell-based; details: NRZ03961, 18 h
# Protocol: as §3
# [14] = test system: A. baumannii ATCC 19606; format: cell-based; details: ATCC 19606, 22 h
# Protocol: as §3
# [15] = test system: E. coli ATCC 25922; format: cell-based; details: ATCC 25922, 18 h
# Protocol: as §3
# [16] = test system: P. aeruginosa ATCC 27853; format: cell-based; details: ATCC 27853, 18 h
# Protocol: as §3
# [17] = test system: E. coli BW25113; format: cell-based; details: BW25113, 18 h
# Protocol: as §3
compound,measurement,setting,value
"CC(C)C[C@@H]1NC(=O)[C@@H](Cc2ccccc2)NC(=O)[C@H](CCN)NC(=O)[C@@H](NC(=O)[C@H](CCN)NC(=O)[C@@H](N)[C@@H](C)O)CCNC(=O)[C@H]([C@@H](C)O)NC(=O)[C@H](CCN)NC(=O)[C@H](CCN)NC1=O [PMBN, polymyxin B nonapeptide, reference compound] (H-T[Dab][Dab][Dab][dF]L[Dab][Dab]T; lactam 3-C (inferred); N-terminus assumed)",FICI,[1],≤ 0.14
same,MIC alone,"[2]; ATCC 25922, 18 h",≥ 256 µg/mL
same,OM disruption (NPN uptake),[3],potent OM disruption
same,OM disruption (NPN uptake),[4],potent OM disruption
same,"ΔΔH, maximum enthalpy observed after subtraction of dilution control",[5],-7.20 ± 0.19 kcal/mol
same,"ΔG, fitted parameter for single site binding",[5]; one-site model,-7.24 ± 0.03 kcal/mol
same,"ΔH, fitted parameter for single site binding",[5]; one-site model,-8.4 ± 0.25 kcal/mol
same,Kd,"[5]; one-site model, read-out: KD, fitted parameter for single site binding",8 ± 0.4 µM
"CCCCCCC(=O)N[C@@H](CCN)C(=O)N[C@H](C(=O)N[C@@H](CCN)C(=O)N[C@H]1CCNC(=O)[C@H]([C@@H](C)O)NC(=O)[C@H](CCN)NC(=O)[C@H](CCN)NC(=O)[C@H](CC(C)C)NC(=O)[C@@H](Cc2ccccc2)NC(=O)[C@H](CCN)NC1=O)[C@@H](C)O [PmxB4, polymyxin B4] (Heptanoyl-[Dab]T[Dab][Dab][Dab][dF]L[Dab][Dab]T; lactam 4-C)",MIC alone,[1]; substance alone,8 µg/mL
same,FICI,[1],0.16 and 0.163
same,MIC alone,"[2]; ATCC 25922, 18 h",1 µg/mL
same,MIC alone,"[2]; E. coli ATCC 25922, checkerboard, substance alone",2 µg/mL
same,OM disruption (NPN uptake),[3],potent OM disruption
same,OM disruption (NPN uptake),[6],most effective OM disruption
same,OM disruption (NPN uptake),[4],potent OM disruption
same,"ΔΔH, maximum enthalpy observed after subtraction of dilution control",[5],-7.86 ± 0.10 kcal/mol
same,MIC,[7],0.06 µg/mL
same,MIC,[8],0.06 µg/mL
same,MIC,[9],0.25 µg/mL
same,MIC,[10],0.125 µg/mL
same,MIC,[11],0.5 µg/mL
same,MIC,[12],4 µg/mL
same,MIC,[13],0.25 µg/mL
same,MIC,[14],0.5 µg/mL
same,MIC,[15],0.25 µg/mL
same,MIC,[16],0.25 µg/mL
same,MIC,[17],0.5 µg/mL
